Data reported in patent publication US20230013669A1, “Antibacterial Treatment Using a Cannabinoid and an Active Agent” (priority 2019, published 2023).
Where “and” joins values, the source holds several entries; their conditions need not be identical. Equal values may be shown once. Read-outs that look alike come from different tables or passages of the source.

Test system: Escherichia coli ATCC 25922 (GN_001)
Experiment: Synergy of cannabidiol with cell-wall disrupting agent (CBD MIC in combination, FICI)
Assay type: cell-based
Conditions: for FICI: calculated using MIC of 256 μg/mL for cannabidiol; for MIC: Escherichia coli
Protocol: The compounds were stored short term at 4° C.
Analysis was performed using Microsoft Excel.

`C=C(C)C1CCC(C)=CC1c1c(O)cc(CCCCC)cc1O` (stereo not shown) [Cannabidiol, 2-[3-methyl-6-(1-methylethenyl)-2-cyclohexen-1-yl]-5-pentyl-1,3-benzenediol] was tested, and the “CBD MIC with Cefuroxime” value (Cefuroxime at 4 μg/mL, Escherichia coli ATCC 25922) was 0.001 µg/mL, the “CBD MIC with Cefuroxime” value (Cefuroxime at 8 μg/mL, Escherichia coli ATCC 25922) was 0.001 µg/mL and the “CBD MIC with Colistin” value (Colistin at 0.06 μg/mL (0.062 in Table 56), Escherichia coli ATCC 25922) was 8 µg/mL. For the same compound, the “CBD MIC with Colistin” value (Colistin at 0.25 μg/mL, Escherichia coli ATCC 25922) was 1 µg/mL, the “CBD MIC with Colistin” value (Colistin at 0.5 μg/mL, Escherichia coli ATCC 25922) was 0.125 µg/mL and the “CBD MIC with Colistin” value (Colistin at […], Escherichia coli ATCC 25922) was 2 µg/mL. For the same compound, the FICI range (Escherichia coli ATCC 25922, CBD with FADDI-287, MIC table (Table 95), listed as CBD) was 0.5-16 and 0.25-8, the FICI range (Escherichia coli ATCC 25922, CBD with FADDI-287, Synergy table (Table 97), listed as CBD) was 0.5 and 0.25-0.5 and the FICI range (Escherichia coli ATCC 25922, CBD with MCC_8980, MIC table (Table 99)) was 0.03-1.02. For the same compound, the FICI range (Escherichia coli ATCC 25922, CBD with MCC_8980, Synergy table (Table 101), listed as CBD) was 0.03-0.26 and 0.03-0.25, the FICI range (Escherichia coli ATCC 25922, CBD with Spero Potentiator SPR741, MIC table (Table 91), listed as CBD) was 0.02-1 and 0.04-1.02 and 0.02-1.01 and the FICI range (Escherichia coli ATCC 25922, CBD with Spero Potentiator SPR741, Synergy table (Table 93), listed as CBD) was 0.02-0.25 and 0.04-0.25. The “CBD MIC with FADDI-287” value (Escherichia coli ATCC 25922, FADDI-287 at […], listed as CBD) was 1 µg/mL, the “CBD MIC with MCC_8980” value (Escherichia coli ATCC 25922, MCC_8980 at 4 μg/mL, listed as CBD) was 16 µg/mL and the “CBD MIC with MCC_8980” value (Escherichia coli ATCC 25922, MCC_8980 at 16 μg/mL, listed as CBD) was 1 µg/mL. The “CBD MIC with Spero SPR206” value (Escherichia coli ATCC 25922, Spero SPR206 at 4 μg/mL, listed as CBD) was 0.0019 µg/mL, the FICI (Escherichia coli ATCC 25922, cannabidiol with FADDI-287 at 0.5 μg/mL) was 2 and the FICI (Escherichia coli ATCC 25922, cannabidiol with FADDI-287 at 1 μg/mL) was 4 and 2. The FICI (Escherichia coli ATCC 25922, cannabidiol with FADDI-287 at 2 μg/mL) was 8 and 4, the FICI (Escherichia coli ATCC 25922, cannabidiol with FADDI-287 at 4 μg/mL) was 16 and 8 and the FICI (Escherichia coli ATCC 25922, cannabidiol with FADDI-287 at […]) was 0.502. The FICI (Escherichia coli ATCC 25922, cannabidiol with MCC_8980 at 0.5 μg/mL) was 1.008, the FICI (Escherichia coli ATCC 25922, cannabidiol with MCC_8980 at 1 μg/mL) was 1.016 and the FICI (Escherichia coli ATCC 25922, cannabidiol with MCC_8980 at 2 μg/mL) was 0.03125. The FICI (Escherichia coli ATCC 25922, cannabidiol with MCC_8980 at 4 μg/mL) was 0.1875, the FICI (Escherichia coli ATCC 25922, cannabidiol with MCC_8980 at 4 μg/mL, listed as cannabidiol) was 0.125 and the FICI (Escherichia coli ATCC 25922, cannabidiol with MCC_8980 at 8 μg/mL) was 0.1328. The FICI (Escherichia coli ATCC 25922, cannabidiol with SPR741 at 0.5 μg/mL) was 1.008 and 1.004, the FICI (Escherichia coli ATCC 25922, cannabidiol with SPR741 at 1 μg/mL) was 1.016 and the FICI (Escherichia coli ATCC 25922, cannabidiol with SPR741 at 16 μg/mL) was 0.127. The MIC (ATCC25922, Escherichia coli ATCC 25922, FADDI-287 at 0.25 μg/mL, read-out: CBD MIC with FADDI-287) was 0.062 µg/mL, the MIC (ATCC25922, Escherichia coli ATCC 25922, FADDI-287 at 0.5 μg/mL, read-out: CBD MIC with FADDI-287) was 0.001 µg/mL and the MIC (ATCC25922, Escherichia coli ATCC 25922, FADDI-287 at 1 μg/mL, read-out: CBD MIC with FADDI-287) was 0.001 µg/mL. The MIC (ATCC25922, Escherichia coli ATCC 25922, FADDI-287 at 2 μg/mL, read-out: CBD MIC with FADDI-287) was 0.001 µg/mL, the MIC (ATCC25922, Escherichia coli ATCC 25922, FADDI-287 at 4 μg/mL, read-out: CBD MIC with FADDI-287) was 0.001 µg/mL and the MIC (ATCC25922, Escherichia coli ATCC 25922, MCC_8980 at 2 μg/mL, read-out: CBD MIC with MCC_8980) was 0.001 µg/mL. It also gave an MIC (ATCC25922, Escherichia coli ATCC 25922, MCC_8980 at 4 μg/mL, read-out: CBD MIC with MCC_8980) of 32 µg/mL, an MIC (ATCC25922, Escherichia coli ATCC 25922, MCC_8980 at 8 μg/mL, read-out: CBD MIC with MCC_8980) of 2 µg/mL and an MIC (ATCC25922, Escherichia coli ATCC 25922, MCC_8980 at 16 μg/mL, read-out: CBD MIC with MCC_8980) of 2 µg/mL. It also gave an MIC (ATCC25922, Escherichia coli ATCC 25922, Spero SPR206 at 0.007 μg/mL, read-out: CBD MIC with Spero SPR206) of no less than 32 µg/mL, an MIC (ATCC25922, Escherichia coli ATCC 25922, Spero SPR206 at 0.015 μg/mL, read-out: CBD MIC with Spero SPR206) of no less than 32 µg/mL and an MIC (ATCC25922, Escherichia coli ATCC 25922, Spero SPR206 at 0.062 μg/mL, read-out: CBD MIC with Spero SPR206) of 1 µg/mL. For the same compound, the MIC (ATCC25922, Escherichia coli ATCC 25922, Spero SPR206 at 4 μg/mL, read-out: CBD MIC with Spero SPR206) was 0.001 µg/mL, the MIC (ATCC25922, MCC_6442 at 2 μg/mL, Escherichia coli ATCC 25922, read-out: CBD MIC with MCC_6442) was 0.0039 µg/mL and the MIC (ATCC25922, MCC_6442 at 4 μg/mL, Escherichia coli ATCC 25922, read-out: CBD MIC with MCC_6442) was 0.001 µg/mL. It also gave an MIC (ATCC25922, Octapeptin C4 at 4 μg/mL, read-out: CBD MIC with Octapeptin C4) of 0.062 µg/mL, an MIC (ATCC25922, Spero SPR206 at 0.007 μg/mL, 2nd of 3 experiments, read-out: CBD MIC with Spero SPR206) greater than 256 µg/mL and an MIC (ATCC25922, Spero SPR206 at 0.015 μg/mL, 2nd of 3 experiments, read-out: CBD MIC with Spero SPR206) greater than 256 µg/mL. The MIC (ATCC25922, Spero SPR206 at 0.062 μg/mL, 2nd of 3 experiments, read-out: CBD MIC with Spero SPR206) was 1 µg/mL, the MIC (ATCC25922, Spero SPR206 at 0.25 μg/mL, 1st of 3 experiments, read-out: CBD MIC with Spero SPR206) was 0.001 µg/mL and the MIC (ATCC25922, Spero SPR206 at 0.25 μg/mL, 2nd of 3 experiments, read-out: CBD MIC with Spero SPR206) was 1 µg/mL. The MIC (ATCC25922, Spero SPR206 at 0.25 μg/mL, 3rd of 3 experiments, read-out: CBD MIC with Spero SPR206) was greater than 256 µg/mL, the MIC (ATCC25922, Spero SPR206 at 0.5 μg/mL, 1st of 3 experiments, read-out: CBD MIC with Spero SPR206) was 0.001 µg/mL and the MIC (ATCC25922, Spero SPR206 at 0.5 μg/mL, 3rd of 3 experiments, read-out: CBD MIC with Spero SPR206) was 2 µg/mL. It also gave an MIC (ATCC25922, Spero SPR206 at 1 μg/mL, 1st of 3 experiments, read-out: CBD MIC with Spero SPR206) of 0.001 µg/mL, an MIC (ATCC25922, Spero SPR206 at 1 μg/mL, 3rd of 3 experiments, read-out: CBD MIC with Spero SPR206) of 0.5 µg/mL and an MIC (ATCC25922, Spero SPR206 at 2 μg/mL, 1st of 3 experiments, read-out: CBD MIC with Spero SPR206) of 0.001 µg/mL. For the same compound, the MIC (ATCC25922, Spero SPR206 at 2 μg/mL, 3rd of 3 experiments, read-out: CBD MIC with Spero SPR206) was 0.25 µg/mL, the MIC (ATCC25922, Spero SPR206 at 4 μg/mL, 1st of 3 experiments, read-out: CBD MIC with Spero SPR206) was 0.001 µg/mL and the MIC (ATCC25922, Spero SPR206 at 4 μg/mL, 3rd of 3 experiments, read-out: CBD MIC with Spero SPR206) was 0.001 µg/mL. The “activity of cannabidiol in combination with Polymyxin B” value (Example 1) was “effective”, the “Average FICI score” value (Example 1, GN_001, cannabidiol + MCC_006636 (Polymyxin B)) was 0.15 and the Synergy (Example 1, GN_001, cannabidiol + MCC_006636 (Polymyxin B), synergy when FICI≤0.5) was “YES”. The “activity of cannabidiol combined with colistin” value (Example 3) was “effective”, the “CBD MIC with Colistin at concentration 0.015625 μg/mL” value (Example 3, GN_001) was greater than 256 µg/mL and the “CBD MIC with Colistin at concentration 0.03125 μg/mL” value (Example 3, GN_001) was greater than 256 µg/mL. For the same compound, the “CBD MIC with Colistin at concentration 0.0625 μg/mL” value (Example 3, GN_001) was 8 µg/mL, the “CBD MIC with Colistin at concentration 0.25 μg/mL” value (Example 3, GN_001) was 1 µg/mL and the “CBD MIC with Colistin at concentration 0.5 μg/mL” value (Example 3, GN_001) was 0.125 µg/mL. For the same compound, the “CBD MIC with Colistin at concentration […]” value (Example 3, GN_001) was 2 µg/mL, the “activity of cannabidiol combined with Polymyxin B” value (Example 6) was “effective” and the “CBD MIC with Polymyxin B at concentration 0.015625 μg/mL” value (Example 6, GN_001) was greater than 256 µg/mL. For the same compound, the “CBD MIC with Polymyxin B at concentration 0.03125 μg/mL” value (Example 6, GN_001) was greater than 256 µg/mL, the “CBD MIC with Polymyxin B at concentration 0.0625 μg/mL” value (Example 6, GN_001) was greater than 256 µg/mL and the “CBD MIC with Polymyxin B at concentration 0.5 μg/mL” value (Example 6, GN_001) was 0.0009766 µg/mL. For the same compound, the “CBD MIC with Polymyxin B at concentration […]” value (Example 6, GN_001) was greater than 256 µg/mL, the “CBD MIC with Polymyxin B at concentration 0.25 μg/mL” value (Example 6, GN_001, listed as CBD) was 2 µg/mL and 4 µg/mL and the “activity of cannabidiol in combination with octapeptin MCC_006442” value (Example 7) was “slightly effective”. For the same compound, the “activity of cannabidiol combined with ticarcillin” value (Example 13) was “effective”, the “activity of cannabidiol combined with colistin” value (Example 14) was “effective” and the “activity of cannabidiol combined with octapeptin MCC_006442” value (Example 15) was “effective”. For the same compound, the “activity of cannabidiol combined with cefotetan” value (Example 17) was “effective”, the “activity of cannabidiol combined with aztreonam” value (Example 18) was “effective” and the “activity of cannabidiol combined with cefepime” value (Example 19) was “effective”. For the same compound, the “activity of cannabidiol combined with octapeptin C4” value (Example 21) was “effective”, the “activity of cannabidiol in combination with Spero Potentiator SPR741” value (Example 22) was “effective” and the “activity of cannabidiol in combination with Spero SPR206” value (Example 22) was “effective”. For the same compound, the “activity of cannabidiol in combination with octapeptin FADDI-287” value (Example 23) was “effective”, the “activity of cannabidiol in combination with MCC_8980” value (Example 24) was “effective” and the “CBD MIC with MCC_6442” value (MCC_6442 at 2 μg/mL, Escherichia coli ATCC 25922, listed as CBD) was 0.0078 µg/mL. For the same compound, the “CBD MIC with Spero SPR206” value (Spero SPR206 at 1 μg/mL, 3rd of 3 experiments, listed as CBD) was 0.25 µg/mL, the “CBD MIC with Spero SPR206” value (Spero SPR206 at 4 μg/mL, 3rd of 3 experiments, listed as CBD) was 0.0019 µg/mL and the “CBD MIC with Ticarcillin” value (Ticarcillin at 4 μg/mL, Escherichia coli ATCC 25922) was 0.125 µg/mL. The “CBD MIC with Ticarcillin” value (Ticarcillin at 8 μg/mL, Escherichia coli ATCC 25922) was 0.001 µg/mL.
